Paper PMC12715762, “Discovery of VU6052254: A Novel, Potent M1 Positive Allosteric Modulator” (ACS Chemical Neuroscience, 2025)
In brackets after ≈: the same amount, converted by molar mass.

Legend:
mM1 = molecular target: T1, mM1 (Mus musculus, UniProt P12657); experiment: M1 PAM calcium mobilization assay (mouse); format: cell-based; details: mouse M1, n = 1
T1 construct: expressed in transfected cells
T1 sequence (P12657 1-460): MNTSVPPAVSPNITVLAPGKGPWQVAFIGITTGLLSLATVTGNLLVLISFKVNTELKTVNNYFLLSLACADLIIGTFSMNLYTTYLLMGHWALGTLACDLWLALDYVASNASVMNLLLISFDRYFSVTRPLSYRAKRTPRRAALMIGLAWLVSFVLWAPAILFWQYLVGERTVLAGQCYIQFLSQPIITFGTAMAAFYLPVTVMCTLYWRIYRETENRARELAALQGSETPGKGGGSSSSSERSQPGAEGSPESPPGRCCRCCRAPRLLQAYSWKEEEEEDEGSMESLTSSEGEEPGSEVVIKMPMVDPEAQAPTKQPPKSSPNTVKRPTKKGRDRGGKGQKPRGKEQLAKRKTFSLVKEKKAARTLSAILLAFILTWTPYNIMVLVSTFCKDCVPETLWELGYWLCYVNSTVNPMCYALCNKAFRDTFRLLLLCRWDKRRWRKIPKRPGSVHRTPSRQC

[1] = predicted hepatic clearance, hepatic microsomes (human); format: in vitro ADME; details: human (h)
Experimental: (§1) After a 5 min preincubation, the reaction was initiated by the addition of NADPH (1 mM). At selected time intervals (0, 3, 7, 15, 25, and 45 min), aliquots were taken and subsequently placed into a 96-well plate containing cold acetonitrile with internal standard (50 ng/mL carbamazepine). Plates were then centrifuged at 3000 rcf (4 °C) for 10 min, and the supernatant was transferred to a separate 96-well plate and diluted 1:1 with water for LC/MS/MS analysis. The in vitro half-life ( 1/2, min, Eq. 1), intrinsic clearance (CLint, mL/min/kg, Eq. 2), and subsequent predicted hepatic clearance (CLhep, mL/min/kg, Eq. 3) was determined employing the […]
(§2) where k represents the slope from linear regression analysis of the natural log percent remaining of a test compound as a function of incubation time […]
(§3) (2) CLint = in vitroT x mg microsomes x gram liver x kg body wt ascale-up factors: of 20 (human) or 45 (rat) […]
(§4) where Qh (hepatic blood flow, mL/min/kg) is 21 (human) or 70 (rat).
(§5) LC/MS/MS Bioanalysis of Samples from Plasma Protein Binding and Intrinsic Clearance […]
(§6) Samples were analyzed on a Thermo Electron TSQ Quantum Ultra triple quad mass spectrometer (San Jose, CA) via electrospray ionization (ESI) with two Themo Electron Accella pumps (San Jose, CA), and a Leap Technologies CTC PAL autosampler (Carrboro, NC). […]

[2] = predicted hepatic clearance, hepatic microsomes (rat); format: in vitro ADME; details: rat (r)
Experimental: as §1, §2, §3, §4, §5, §6

[3] = predicted hepatic clearance (dog); format: in vitro ADME; details: dog (d)
Experimental: as §1, §2, §3, §4, §5, §6

CYP 1A2 = CYP 1A2 (Homo sapiens, UniProt P05177); experiment: CYP450 inhibition; format: in vitro ADME
MDCK-MDR1 (P-gp) = molecular target: T2, MDCK-MDR1 (P-gp) (Homo sapiens, UniProt P08183); experiment: MDCK-MDR1 permeability and efflux; format: in vitro ADME; set-up: Papp at 2 h / efflux ratio at 2 h: dose or concentration left out as unconfirmed; details: MDCK-MDR1
T2 construct: host or cells: MDR1-MDCK cell monolayers
Experimental: (§7) min, with an isocratic hold for 0.5 min, before transitioning to 10% B over 0.05 min. The column was re-equilibrated (1 min) before the next sample injection. The total run time was 2.55 min, and the HPLC flow rate was 0.5 ml/min. The source temperature was set at 500 °C, and mass spectral analyses were performed using a Turbo-Ion spray source in positive ionization mode (5.0-kV spray voltage) and using multiple-reaction monitoring of transitions specific for the analytes. All data were analyzed using AB Sciex Analyst 1.5.1 software. […]
(§8) In-vitro determination of blood-brain barrier penetration potential
(§9) Blood-brain barrier penetration was determined using MDR1-MDCK cell monolayers by Absorption Systems, following their protocol. In short, compounds were incubated at […] final concentration on one side of the cell monolayer for 2 hours. Compounds concentration on either side of the monolayer was determined by LC-MS/MS and apparent permeability and efflux ratio

P-gp (MDR1) = molecular target: T3, P-gp (MDR1) (Homo sapiens, UniProt P08183); experiment: MDCK-MDR1 permeability and efflux; format: in vitro ADME; set-up: Papp at 2 h / efflux ratio at 2 h: dose or concentration left out as unconfirmed; details: dog; for efflux ratio at 2 h: MDCK-MDR1 efflux ratio, read-out: P-gp ER
T3 construct: host or cells: MDR1-MDCK cell monolayers
Experimental: as §7, §8, §9

[4] = solubility in simulated intestinal fluid (FaSSIF); format: physicochemical

T3 sequence (P08183 whole entry): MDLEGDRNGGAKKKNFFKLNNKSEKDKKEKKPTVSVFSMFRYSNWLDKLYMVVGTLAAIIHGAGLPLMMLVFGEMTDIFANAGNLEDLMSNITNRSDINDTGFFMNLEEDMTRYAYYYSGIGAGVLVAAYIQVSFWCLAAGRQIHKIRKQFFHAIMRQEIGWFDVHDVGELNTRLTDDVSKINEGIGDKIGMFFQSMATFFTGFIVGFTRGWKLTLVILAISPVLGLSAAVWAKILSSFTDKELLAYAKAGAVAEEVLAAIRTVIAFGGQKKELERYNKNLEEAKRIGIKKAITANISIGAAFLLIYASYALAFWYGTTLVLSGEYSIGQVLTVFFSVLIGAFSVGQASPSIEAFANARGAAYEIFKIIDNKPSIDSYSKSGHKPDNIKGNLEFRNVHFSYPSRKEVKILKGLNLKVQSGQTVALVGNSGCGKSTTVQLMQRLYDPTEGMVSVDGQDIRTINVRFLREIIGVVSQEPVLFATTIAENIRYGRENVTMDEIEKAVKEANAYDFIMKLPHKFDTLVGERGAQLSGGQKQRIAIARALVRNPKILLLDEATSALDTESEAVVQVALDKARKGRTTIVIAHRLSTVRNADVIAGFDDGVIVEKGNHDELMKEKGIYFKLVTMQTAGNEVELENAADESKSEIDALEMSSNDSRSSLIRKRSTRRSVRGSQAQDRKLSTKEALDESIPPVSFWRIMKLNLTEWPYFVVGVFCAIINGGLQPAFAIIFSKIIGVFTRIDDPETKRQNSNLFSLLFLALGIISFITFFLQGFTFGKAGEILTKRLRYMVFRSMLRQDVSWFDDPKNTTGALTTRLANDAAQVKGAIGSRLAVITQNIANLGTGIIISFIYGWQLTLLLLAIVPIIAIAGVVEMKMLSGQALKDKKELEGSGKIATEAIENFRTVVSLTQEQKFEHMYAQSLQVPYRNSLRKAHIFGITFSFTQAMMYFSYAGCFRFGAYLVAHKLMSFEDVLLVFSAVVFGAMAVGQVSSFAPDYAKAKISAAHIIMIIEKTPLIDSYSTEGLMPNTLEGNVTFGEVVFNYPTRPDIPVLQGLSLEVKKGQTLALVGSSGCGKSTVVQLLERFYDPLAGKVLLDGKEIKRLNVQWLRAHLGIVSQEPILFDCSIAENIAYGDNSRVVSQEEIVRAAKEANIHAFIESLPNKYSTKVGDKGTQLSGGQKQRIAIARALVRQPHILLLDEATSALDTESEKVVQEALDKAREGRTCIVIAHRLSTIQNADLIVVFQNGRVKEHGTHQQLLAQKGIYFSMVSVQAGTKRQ
Chain of CYP 1A2 (P05177 whole entry): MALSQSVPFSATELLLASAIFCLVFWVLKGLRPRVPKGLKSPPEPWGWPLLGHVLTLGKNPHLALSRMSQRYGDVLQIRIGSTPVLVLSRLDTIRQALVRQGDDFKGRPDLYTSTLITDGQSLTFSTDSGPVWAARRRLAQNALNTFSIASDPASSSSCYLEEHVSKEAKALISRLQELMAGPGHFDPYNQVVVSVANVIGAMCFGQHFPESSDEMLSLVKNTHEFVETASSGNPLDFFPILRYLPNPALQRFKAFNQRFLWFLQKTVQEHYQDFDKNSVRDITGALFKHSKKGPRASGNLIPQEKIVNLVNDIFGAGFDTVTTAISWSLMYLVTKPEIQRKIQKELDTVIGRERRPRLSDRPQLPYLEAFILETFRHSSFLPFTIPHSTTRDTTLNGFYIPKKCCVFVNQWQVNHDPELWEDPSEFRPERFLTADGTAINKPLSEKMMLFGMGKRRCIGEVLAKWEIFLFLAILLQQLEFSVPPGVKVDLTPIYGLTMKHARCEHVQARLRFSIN
T2 sequence (P08183 whole entry): as the sequence (P08183 whole entry) above

Structure (SMILES)	EC50 (mM1) [nM]	mM1 PAM, percentage in brackets (AChmax) (mM1) [%]	Predicted CLhep [1] [mL/min/kg]	Predicted CLhep [2] [mL/min/kg]	Predicted CLhep [3] [mL/min/kg]	IC50 (CYP 1A2) [nM]	Papp (MDCK-MDR1 (P-gp)) [×10⁻⁶ cm/s]	Papp at 2 h (P-gp (MDR1); MDCK-MDR1, MDCK-MDR1) [×10⁻⁶ cm/s]	efflux ratio at 2 h (P-gp (MDR1))	solubility [4] [µg/mL]
Cn1cc2c(-c3cc(F)c(CN4Cc5ncccc5C4=O)c(F)c3)ccc(C(C)(C)O)c2n1 [compound 7]	80	63	12.8	35.5	8.0	> 30000	23.1	23	1.97	11 (≈ 24.5 µM)
Cn1cc2c(-c3cc(F)c(CN4Cc5ncccc5C4=O)c(F)c3)cccc2n1 [compound 1, reference compound]	728	56	1.3	5.7	5.5	14000	31	–	1.6	7 (≈ 17.9 µM)
